Our source for the TGI values is PubChem BioAssay (NCI).

Structures are written as SMILES.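 Exposure lasted 48 hours, with cells grown in 96-well plates and compounds tested at five concentrations. TGI marks complete inhibition of growth.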

Holding throughout (experiment): growth of human tumour cells (NCI), 48 h
Test [1] relates to CAKI-1 renal.
The test system of test [2] is A549 NSCLC.
Test [3] has as its system HOP-62 NSCLC.
The test system of test [4] is SW-620 colon.
Test [5] has as its system MOLT-4 leukemia.
Test [6] relates to OVCAR-4 ovarian.
Test [7] concerns SNB-19 CNS.
Test [8] relates to HT29 colon.
Test [9] has as its system SF-268 CNS.
Test [10] relates to CCRF-CEM leukemia.
The test system of test [11] is UO-31 renal.
For test [12], the system named is COLO 205 colon.
For test [13], the system named is DMS 114 small cell lung.
Test [14] deals with ACHN renal.
In test [15] the test system is UACC-257 melanoma.
The subject of test [16] is SF-295 CNS.
The subject of test [17] is NCI-H460 lung.
Test [18] deals with NCI-H226 lung.
Test [19] relates to KM20L2 colon.
Test [20] concerns SF-539 CNS.

Regarding `COC(=O)C1=C(C)N2CCCOC2(C)C(C(=O)OC)C1c1cccc(Cl)c1` (stereo not given), the TGI in [1] is 92.5 µM; in test [2], over 100 µM; in test [3] it was 48.7 µM; in test [4], over 100 µM; in test [5] it was 45.1 µM; in test [6], over 100 µM. For the same compound, the TGI in [7] was over 100 µM; in [8], 56.2 µM; in [9], over 100 µM; in [10], over 100 µM; in [11], 71.2 µM; in [12], 37.9 µM. The TGI in test [13] came out at 60.5 µM; in test [14], 93.3 µM; in [15], 57.1 µM; in [16], 88.9 µM; in [17] it was 61.3 µM; in test [18], 59.6 µM. For the same compound, the TGI in test [19] is 64.4 µM; in [20], 93.8 µM.
